Measurements as given in BindingDB's records for doi:10.7270/Q28C9TSJ (Nmmlsc, 2011).
pEC50: −log10 of the molar value.

Target: T1, Multidrug resistance protein CDR2 (Candida albicans (strain SC5314 / ATCC MYA-2876), UniProt P78595)
T1 sequence (P78595 whole entry): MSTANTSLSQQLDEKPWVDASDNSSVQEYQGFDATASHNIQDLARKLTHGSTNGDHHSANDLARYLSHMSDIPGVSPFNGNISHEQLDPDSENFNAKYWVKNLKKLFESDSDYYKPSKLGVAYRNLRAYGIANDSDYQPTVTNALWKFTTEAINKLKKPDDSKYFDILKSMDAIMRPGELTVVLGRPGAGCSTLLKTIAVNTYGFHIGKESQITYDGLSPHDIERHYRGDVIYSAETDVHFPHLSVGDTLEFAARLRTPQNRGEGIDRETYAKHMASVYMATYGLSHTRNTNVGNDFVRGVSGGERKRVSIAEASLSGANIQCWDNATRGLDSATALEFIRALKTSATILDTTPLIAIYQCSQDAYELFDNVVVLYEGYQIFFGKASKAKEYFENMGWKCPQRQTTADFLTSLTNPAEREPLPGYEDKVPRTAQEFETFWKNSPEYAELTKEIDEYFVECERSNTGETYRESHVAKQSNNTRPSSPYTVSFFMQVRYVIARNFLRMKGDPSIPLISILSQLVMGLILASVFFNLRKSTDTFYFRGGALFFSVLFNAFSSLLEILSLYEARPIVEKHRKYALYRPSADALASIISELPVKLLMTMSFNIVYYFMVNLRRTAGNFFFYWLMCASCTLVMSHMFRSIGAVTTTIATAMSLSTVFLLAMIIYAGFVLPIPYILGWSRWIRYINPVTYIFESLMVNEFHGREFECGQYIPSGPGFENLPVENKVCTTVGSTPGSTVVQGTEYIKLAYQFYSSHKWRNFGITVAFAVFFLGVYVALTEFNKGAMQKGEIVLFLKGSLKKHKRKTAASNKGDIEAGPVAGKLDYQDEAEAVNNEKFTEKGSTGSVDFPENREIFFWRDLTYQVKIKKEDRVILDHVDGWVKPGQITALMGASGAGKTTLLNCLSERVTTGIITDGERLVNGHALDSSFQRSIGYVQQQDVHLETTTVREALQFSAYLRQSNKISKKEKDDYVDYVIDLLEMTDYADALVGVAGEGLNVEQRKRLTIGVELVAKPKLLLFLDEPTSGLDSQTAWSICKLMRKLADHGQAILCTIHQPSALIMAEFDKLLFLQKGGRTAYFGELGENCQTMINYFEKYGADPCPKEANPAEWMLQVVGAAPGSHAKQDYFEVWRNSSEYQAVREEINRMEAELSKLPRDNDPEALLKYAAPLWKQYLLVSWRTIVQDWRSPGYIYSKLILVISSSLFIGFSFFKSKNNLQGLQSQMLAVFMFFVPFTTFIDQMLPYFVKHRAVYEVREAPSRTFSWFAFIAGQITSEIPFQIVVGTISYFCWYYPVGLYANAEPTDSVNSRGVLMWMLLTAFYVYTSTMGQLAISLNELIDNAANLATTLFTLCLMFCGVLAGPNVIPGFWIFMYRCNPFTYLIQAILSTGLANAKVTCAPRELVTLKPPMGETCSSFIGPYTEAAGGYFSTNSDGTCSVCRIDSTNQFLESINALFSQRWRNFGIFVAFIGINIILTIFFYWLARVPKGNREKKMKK
Assay: CaCDR2 efflux pump inhibitors in yeast, dose response, S. cerevisiae AD1-8u, singleplex, Cherry Pick1 hits (AID 588604)

O=[N+]([O-])c1cc(CN=Nc2ccccn2)ccc1Cl
pEC50: 5.03
